Like-named read-outs stand apart in the source and are kept apart here. Each block holds one compound with its values, some of them ahead of it.
Assays:
Assay type in all cases: biochemical
CDK2/CCNE1 = CDK2/CCNE1 (Homo sapiens, UniProt P24941); test: CDK2 homogeneous time-resolved fluorescence (HTRF) kinase assay; settings: CDK2/CCNE
Outline: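 3 nM CDK2/CCNE1 was preincubated with compound for 20 min at 23 °C in HEPES buffer (pH not stated), then reacted 60 min with 1 mM ATP and 50 nM ULight-4E-BP1 (Thr37/46) peptide. After EDTA stop, Eu-anti-phospho-4E-BP1 antibody (2 nM) was added for 60 min and TR-FRET read at 665 nm.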

CDK1/CCNB1 = CDK1/CCNB1 (Homo sapiens, UniProt P06493); test: CDK1 homogeneous time-resolved fluorescence (HTRF) kinase assay; settings: CDK1/CCNB
Chain of CDK1/CCNB1 (P06493 whole entry): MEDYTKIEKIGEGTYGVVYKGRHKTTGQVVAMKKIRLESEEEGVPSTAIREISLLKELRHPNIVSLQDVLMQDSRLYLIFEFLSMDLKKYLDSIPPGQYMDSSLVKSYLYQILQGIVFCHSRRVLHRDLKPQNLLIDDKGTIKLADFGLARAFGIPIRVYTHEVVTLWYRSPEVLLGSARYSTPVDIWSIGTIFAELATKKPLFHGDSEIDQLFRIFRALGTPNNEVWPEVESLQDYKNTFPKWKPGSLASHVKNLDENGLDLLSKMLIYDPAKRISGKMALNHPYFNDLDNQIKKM
Chain of CDK1/CCNB1 (P14635 whole entry partner): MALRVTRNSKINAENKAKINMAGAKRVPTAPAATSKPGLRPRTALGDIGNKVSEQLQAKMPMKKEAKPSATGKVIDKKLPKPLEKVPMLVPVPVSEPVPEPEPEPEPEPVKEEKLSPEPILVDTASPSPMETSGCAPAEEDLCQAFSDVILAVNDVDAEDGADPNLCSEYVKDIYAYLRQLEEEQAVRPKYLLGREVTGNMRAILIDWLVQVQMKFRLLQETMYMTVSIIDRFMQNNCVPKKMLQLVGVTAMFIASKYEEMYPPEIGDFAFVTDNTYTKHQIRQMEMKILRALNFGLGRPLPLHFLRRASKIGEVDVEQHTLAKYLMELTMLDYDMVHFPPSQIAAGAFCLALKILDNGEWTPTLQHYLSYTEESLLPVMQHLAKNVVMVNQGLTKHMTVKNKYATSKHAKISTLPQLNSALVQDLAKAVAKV
Outline: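 Compounds, titrated 11 points in half-log steps typically from 10 μM, were incubated with enzyme for 20 min before ATP (1 mM) and ULight-labelled eIF4E-binding protein 1 peptide (50 nM) started a 60-min reaction at 23 °C. Phosphopeptide was detected by europium-antibody TR-FRET and IC50 values were derived.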

CDK4/CCND3 = CDK4/CCND3 (Homo sapiens, UniProt P11802); test: CDK4 homogeneous time-resolved fluorescence (HTRF) kinase assay; settings: CDK4/CCND
Chain of CDK4/CCND3 (P11802 whole entry): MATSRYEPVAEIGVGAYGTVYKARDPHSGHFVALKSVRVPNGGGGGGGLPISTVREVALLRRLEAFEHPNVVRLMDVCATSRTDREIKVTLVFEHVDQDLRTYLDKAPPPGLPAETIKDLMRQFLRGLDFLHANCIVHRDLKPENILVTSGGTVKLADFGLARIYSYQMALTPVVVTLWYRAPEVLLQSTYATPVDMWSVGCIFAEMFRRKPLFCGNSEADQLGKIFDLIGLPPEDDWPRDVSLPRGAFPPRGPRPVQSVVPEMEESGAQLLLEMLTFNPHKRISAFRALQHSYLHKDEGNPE
Chain of CDK4/CCND3 (P30281 whole entry partner): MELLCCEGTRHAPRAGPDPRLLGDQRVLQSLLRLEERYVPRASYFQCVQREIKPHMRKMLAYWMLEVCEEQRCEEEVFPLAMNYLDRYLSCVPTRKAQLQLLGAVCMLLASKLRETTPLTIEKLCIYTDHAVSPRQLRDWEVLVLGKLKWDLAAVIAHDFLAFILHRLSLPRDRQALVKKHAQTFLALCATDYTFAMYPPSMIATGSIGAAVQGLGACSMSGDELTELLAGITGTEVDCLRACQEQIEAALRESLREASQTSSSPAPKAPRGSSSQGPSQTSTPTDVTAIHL
Outline: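 Steps: compound plus 1.5 nM CDK4/CCND3, 20 min, 23 °C; add 1 mM ATP and 50 nM ULight-4E-BP1 (Thr37/46) peptide, 60 min; stop with 10 mM EDTA; add 2 nM Eu anti-phospho antibody, 60 min; read 665 nm. IC50 from 11-point half-log series starting 10 μM.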

CDK6/CCND1 = CDK6/CCND1 (Homo sapiens, UniProt Q00534); test: CDK6 homogeneous time-resolved fluorescence (HTRF) kinase assay; settings: CDK6/CCND
Chain of CDK6/CCND1 (Q00534 whole entry): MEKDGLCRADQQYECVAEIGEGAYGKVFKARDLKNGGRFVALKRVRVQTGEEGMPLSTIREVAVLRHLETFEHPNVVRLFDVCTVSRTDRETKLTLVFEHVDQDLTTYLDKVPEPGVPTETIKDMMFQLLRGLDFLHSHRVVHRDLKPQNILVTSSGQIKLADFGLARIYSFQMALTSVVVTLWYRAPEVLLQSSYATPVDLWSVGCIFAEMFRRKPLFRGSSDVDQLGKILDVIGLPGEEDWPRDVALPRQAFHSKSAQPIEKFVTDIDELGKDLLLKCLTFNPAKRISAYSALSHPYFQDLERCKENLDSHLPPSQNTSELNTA
Chain of CDK6/CCND1 (P24385 whole entry partner): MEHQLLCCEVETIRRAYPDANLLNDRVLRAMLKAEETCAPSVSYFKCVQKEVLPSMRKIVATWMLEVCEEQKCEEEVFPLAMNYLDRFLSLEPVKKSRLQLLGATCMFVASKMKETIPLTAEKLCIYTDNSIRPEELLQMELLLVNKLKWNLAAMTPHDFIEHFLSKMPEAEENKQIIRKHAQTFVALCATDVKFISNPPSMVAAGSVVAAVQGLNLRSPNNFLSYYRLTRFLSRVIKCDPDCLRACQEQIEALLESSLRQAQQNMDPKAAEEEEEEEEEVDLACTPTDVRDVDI
Outline: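 Enzyme pre-incubated 20 min at 23 °C with compound, then reacted 60 min at 23 °C with 1 mM ATP and 50 nM ULight-4E-BP1 (Thr37/46) peptide; 1 nM enzyme, 1% DMSO. EDTA-stopped, Eu-anti-phospho antibody TR-FRET read (665 nm or 665/615 ratio); 11-point half-log titration from 10 μM gave IC50.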

[1] = >250 nM, read-out: CDK1/CCNB IC50 >250 nM
[2] = >250 nM, read-out: CDK4/CCND IC50, >250 nM
[3] = >250 nM, 1 mM ATP, read-out: CDK6/CCND IC50, >250 nM
[4] = <25 nM, read-out: CDK2/CCNE IC50 <25 nM
[5] = >250 nM marked x, read-out: CDK1/CCNB IC50 >250 nM
[6] = <25 nM, read-out: CDK2/CCNE IC50, <25 nM
[7] = 25-250 nM, 1 mM ATP, read-out: CDK6/CCND IC50, 25-250 nM
[8] = 25-250 nM, read-out: CDK4/CCND IC50, 25-250 nM

SMILES: CCN(c1ncccn1)S(=O)(=O)c1ccc(Nc2cc3c(-c4ccc5c(cnn5CC(O)(C(F)(F)F)C(F)(F)F)c4C)nccc3cn2)cc1 [Ex 731, N-ethyl-4-((5-(4-methyl-1-(3,3,3-trifluoro-2-hydroxy-2-(trifluoromethyl)propyl)-1H-indazol-5-yl)-2,6-naphthyridin-3-yl)amino)-N-(pyrimidin-2-yl)benzenesulfonamide]
IC50 (CDK2/CCNE1; 25-250 nM, read-out: CDK2/CCNE IC50, 25-250 nM): 25 to 250 nM
IC50 (CDK1/CCNB1; [1]): > 250 nM
IC50 (CDK4/CCND3; [2]): > 250 nM
IC50 (CDK6/CCND1; [3]): > 250 nM

SMILES: CS(=O)(=O)N1CCC(Nc2cc3c(-c4cccc(N)c4)nccc3cn2)CC1 [Ex 72, 5-(3-aminophenyl)-N-(1-(methylsulfonyl)piperidin-4-yl)-2,6-naphthyridin-3-amine]
IC50 (CDK2/CCNE1; [4]): < 25 nM
IC50 (CDK1/CCNB1; [5]): > 250 nM
IC50 (CDK4/CCND3; 25-250 nM marked x, read-out: CDK4/CCND IC50 25-250 nM): 25 to 250 nM
IC50 (CDK6/CCND1; 25-250 nM marked x, read-out: CDK6/CCND IC50 25-250 nM): 25 to 250 nM

SMILES: CS(=O)(=O)c1ccc(Nc2cc3c(ccnc3[C@H]3CC[C@H](C(=O)N4CCOCC4)CC3)cn2)cc1 [Ex 201, ((1r,4r)-4-(7-((4-(methylsulfonyl)phenyl)amino)-2,6-naphthyridin-1-yl)cyclohexyl)(morpholino)methanone]
IC50 (CDK2/CCNE1; >250 nM marked x, read-out: CDK2/CCNE IC50 >250 nM): > 250 nM
IC50 (CDK1/CCNB1; [5]): > 250 nM
IC50 (CDK4/CCND3; >250 nM marked x, read-out: CDK4/CCND IC50 >250 nM): > 250 nM
IC50 (CDK6/CCND1; >250 nM marked x, read-out: CDK6/CCND IC50 >250 nM): > 250 nM

SMILES: Cc1c(C#N)cccc1C#Cc1nccc2cnc(Nc3ccc(S(C)(=O)=O)cc3)cc12 [Ex 564, 2-methyl-3-((7-((4-(methylsulfonyl)phenyl)amino)-2,6-naphthyridin-1-yl)ethynyl)benzonitrile]
IC50 (CDK2/CCNE1; x = IC50 25-250 nM, read-out: CDK2/CCNE IC50 (25-250 nM)): 25 to 250 nM
IC50 (CDK1/CCNB1; x = IC50 >250 nM, read-out: CDK1/CCNB IC50 (>250 nM column)): > 250 nM
IC50 (CDK4/CCND3; x = IC50 >250 nM, read-out: CDK4/CCND IC50 (>250 nM column)): > 250 nM
IC50 (CDK6/CCND1; x = IC50 >250 nM, read-out: CDK6/CCND IC50 (>250 nM column)): > 250 nM

SMILES: Cc1c(-c2nccc3cnc(NC4CCN(S(C)(=O)=O)CC4)cc23)ccc2[nH]ncc12 [Ex 116, 5-(4-methyl-1H-indazol-5-yl)-N-(1-(methylsulfonyl)piperidin-4-yl)-2,6-naphthyridin-3-amine]
IC50 (CDK2/CCNE1; [4]): < 25 nM
IC50 (CDK1/CCNB1; 25-250 nM marked x, read-out: CDK1/CCNB IC50 25-250 nM): 25 to 250 nM
IC50 (CDK4/CCND3; <25 nM, read-out: CDK4/CCND IC50 <25 nM): < 25 nM
IC50 (CDK6/CCND1; <25 nM, read-out: CDK6/CCND IC50 <25 nM): < 25 nM

The next lines start with the values.

IC50 (CDK2/CCNE1; [6]): < 25 nM
IC50 (CDK1/CCNB1; [1]): > 250 nM
IC50 (CDK4/CCND3; [2]): > 250 nM
IC50 (CDK6/CCND1; [7]): 25 to 250 nM
SMILES: Cc1c(-c2nccc3cnc(Nc4ccc(S(C)(=O)=O)cc4O)cc23)ccc2c1cnn2CC(C)(C)O [Example 784, 2-((5-(1-(2-hydroxy-2-methylpropyl)-4-methyl-1H-indazol-5-yl)-2,6-naphthyridin-3-yl)amino)-5-(methylsulfonyl)phenol]

IC50 (CDK2/CCNE1; [6]): < 25 nM
IC50 (CDK1/CCNB1; [1]): > 250 nM
IC50 (CDK4/CCND3; [8]): 25 to 250 nM
IC50 (CDK6/CCND1; [7]): 25 to 250 nM
SMILES: Cc1c(-c2nccc3cnc(Nc4ccc([S@](C)(=N)=O)cc4)cc23)ccc2c1cnn2CC(O)(C(F)(F)F)C(F)(F)F [Example 725, (R)-1,1,1,3,3,3-hexafluoro-2-((4-methyl-5-(7-((4-(S-methylsulfonimidoyl)phenyl)amino)-2,6-naphthyridin-1-yl)-1H-indazol-1-yl)methyl)propan-2-ol]

IC50 (CDK2/CCNE1; [6]): < 25 nM
IC50 (CDK1/CCNB1; 25-250 nM, read-out: CDK1/CCNB IC50, 25-250 nM): 25 to 250 nM
IC50 (CDK4/CCND3; [8]): 25 to 250 nM
IC50 (CDK6/CCND1; [7]): 25 to 250 nM
SMILES: Cc1c(-c2nccc3cnc(Nc4ccc(NS(=O)(=O)c5ccccn5)cc4)cc23)ccc2c1cnn2CC(C)(C)O [Ex 768, N-(4-((5-(1-(2-hydroxy-2-methylpropyl)-4-methyl-1H-indazol-5-yl)-2,6-naphthyridin-3-yl)amino)phenyl)pyridine-2-sulfonamide]

IC50 (CDK2/CCNE1; [6]): < 25 nM
IC50 (CDK1/CCNB1; [1]): > 250 nM
IC50 (CDK4/CCND3; [2]): > 250 nM
IC50 (CDK6/CCND1; [3]): > 250 nM
SMILES: Cc1c(-c2nccc3cnc(Nc4ccc(S(=O)(=O)Nc5cc(C(F)(F)F)cc(C(F)(F)F)n5)cc4)cc23)ccc2c1cnn2CC(C)(C)O [Ex 775, N-(4,6-bis(trifluoromethyl)pyridin-2-yl)-4-((5-(1-(2-hydroxy-2-methylpropyl)-4-methyl-1H-indazol-5-yl)-2,6-naphthyridin-3-yl)amino)benzenesulfonamide]
